The target in this test is T1, Doublecortin-like kinase 1 (DCLK1) (Homo sapiens, UniProt O15075).
T1 sequence (O15075 390-647 limits assumed): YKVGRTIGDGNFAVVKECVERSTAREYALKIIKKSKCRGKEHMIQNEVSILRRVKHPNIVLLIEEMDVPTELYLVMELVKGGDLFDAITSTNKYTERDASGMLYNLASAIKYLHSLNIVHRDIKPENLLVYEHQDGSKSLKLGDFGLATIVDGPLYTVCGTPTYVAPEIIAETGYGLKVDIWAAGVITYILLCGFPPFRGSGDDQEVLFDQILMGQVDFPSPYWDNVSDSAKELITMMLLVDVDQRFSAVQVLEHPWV
The experiment in a line: peptide substrate mobility shift kinase assay with purified DCLK1 WT. Type of test: biochemical.

Structures are written as SMILES.

Broadly, the IC50 is the concentration needed to halve the response being measured. Turning to `COc1cc(N2CCN(C)CC2)ccc1Nc1ncc2c(n1)N(C)c1ccccc1C(=O)N2CC(F)(F)F` [DCLK1-IN-1], the IC50 was determined as 55 nM.

(Values after paper PMC8053042 (Cell chemical biology, 2020).)
